Reference: ChEMBL document CHEMBL2062444, “The Rhodadyns, a New Class of Small Molecule Inhibitors of Dynamin GTPase Activity” (ACS Med Chem Lett, 2012)
Calls of active or inactive are those of the source.

Columns and labels:
Homo sapiens = species on record: Homo sapiens; experiment: Inhibition of clathrin at 100 uM
Ovis aries = species on record: Ovis aries; experiment: Inhibition of sheep dynamin 1 GTPase activity up to 300 uM after 30 mins by malachite-green method
[1] = Inhibition of sheep dynamin 1 GTPase activity after 30 mins by malachite-green method; design: species or system Ovis aries
Dynamin-1 (Homo sapiens) = target: T1, Dynamin-1 (Homo sapiens) (UniProt Q05193); experiment: Inhibition of dynamin1-mediated endocytosis in human U2OS cells assessed as inhibition of Texas red-Tf uptake incubated up to 300 uM for 30 mins prior to Texas red-Tf addition measured after 8 mins by receptor-mediated endocytosis assay; format: cell-based
T1 sequence (whole entry): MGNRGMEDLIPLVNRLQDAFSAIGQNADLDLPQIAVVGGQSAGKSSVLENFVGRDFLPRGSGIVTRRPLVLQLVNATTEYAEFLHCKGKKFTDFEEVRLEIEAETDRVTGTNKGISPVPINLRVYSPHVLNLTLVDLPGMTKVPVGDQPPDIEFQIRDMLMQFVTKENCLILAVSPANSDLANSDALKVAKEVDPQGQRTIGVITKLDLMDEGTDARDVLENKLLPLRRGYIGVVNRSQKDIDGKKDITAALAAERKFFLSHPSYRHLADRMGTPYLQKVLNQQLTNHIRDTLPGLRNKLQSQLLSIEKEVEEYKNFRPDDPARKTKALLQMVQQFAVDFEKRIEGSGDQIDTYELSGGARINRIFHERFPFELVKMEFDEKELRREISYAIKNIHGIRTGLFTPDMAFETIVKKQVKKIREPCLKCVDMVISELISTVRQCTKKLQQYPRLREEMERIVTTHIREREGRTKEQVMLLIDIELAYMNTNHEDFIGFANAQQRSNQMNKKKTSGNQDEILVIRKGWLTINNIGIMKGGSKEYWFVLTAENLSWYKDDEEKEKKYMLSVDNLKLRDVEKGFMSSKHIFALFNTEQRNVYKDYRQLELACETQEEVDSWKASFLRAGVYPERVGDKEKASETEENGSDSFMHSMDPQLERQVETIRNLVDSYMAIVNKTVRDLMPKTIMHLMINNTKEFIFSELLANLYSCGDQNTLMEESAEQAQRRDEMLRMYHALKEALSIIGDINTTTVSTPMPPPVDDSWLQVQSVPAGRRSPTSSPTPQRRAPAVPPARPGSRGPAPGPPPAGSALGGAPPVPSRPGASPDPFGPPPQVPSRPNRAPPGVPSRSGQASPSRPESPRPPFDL

Row | inhibition (Homo sapiens) | inhibition (Ovis aries) | IC50 [1] [µM] | inhibition (Dynamin-1 (Homo sapiens)) | SMILES
1 | inactive | inactive | – | – | O=C1NC(=S)S/C1=C\c1ccc(Br)cc1
2 | inactive | inactive | – | – | C=CCN1C(=O)/C(=C/C2=Cc3ccccc3OC2)SC1=S
3 | inactive | inactive | – | – | O=C1/C(=C/c2ccc(-c3ccccc3)cc2)SC(=S)N1Cc1ccccc1
4 | inactive | – | 3.6 | – | C=CCN1C(=O)/C(=C/c2ccc(OCCCN(C)C)cc2)SC1=S
5 | inactive | – | 7.4 | – | O=C1NC(=S)S/C1=C\c1ccc2nonc2c1
6 | inactive | inactive | – | – | C=CCN1C(=O)/C(=C/c2cnc3ccccc3n2)SC1=S
7 | inactive | inactive | – | – | CCN1C(=O)/C(=C/C2=Cc3ccccc3OC2)SC1=S
8 | inactive | inactive | – | – | CN(C)CCCOc1ccc(/C=C2\SC(=S)NC2=O)cc1
9 | inactive | – | 134 | – | O=C1/C(=C/c2ccc(Br)cc2)SC(=S)N1Cc1ccccc1
10 | inactive | – | 42 | – | O=C(O)CCN1C(=O)/C(=C/c2ccc(-c3ccccc3)cc2)SC1=S
11 | inactive | inactive | – | – | O=C1NC(=S)S/C1=C\c1ccc(-c2ccccc2)cc1
12 | inactive | – | 24 | – | O=C1NC(=S)S/C1=C\c1coc2c(Cl)cc(Cl)cc2c1=O
13 | inactive | – | 5.5 | inactive | O=C(O)CN1C(=O)/C(=C/c2cc(Cl)cc(Cl)c2)SC1=S
14 | inactive | inactive | – | – | CCN1C(=O)/C(=C/c2csc3ccc(Cl)cc23)SC1=S
15 | inactive | – | 22 | inactive | CN(C)CCCOc1ccc(/C=C2\SC(=S)N(Cc3ccccc3)C2=O)cc1
16 | inactive | – | > 100 | – | O=C(O)CN1C(=O)/C(=C/c2cnc3ccccc3n2)SC1=S
17 | inactive | inactive | – | – | O=C(O)CCN1C(=O)/C(=C/c2cnc3ccccc3n2)SC1=S
18 | inactive | inactive | – | – | C=CCN1C(=O)/C(=C/c2ccc(-c3ccccc3)cc2)SC1=S
19 | inactive | inactive | – | – | CN(C)CCCOc1ccc(/C=C2\SC(=S)N(CC(=O)O)C2=O)cc1
20 | inactive | – | 7.5 | – | O=C1NC(=S)S/C1=C\c1cc(Cl)cc(Cl)c1

Row | inhibition (Homo sapiens) | inhibition (Ovis aries) | IC50 [1] [µM] | inhibition (Dynamin-1 (Homo sapiens)) | SMILES
21 | inactive | – | 9 | – | O=C(O)CCN1C(=O)/C(=C/c2ccc(Br)cc2)SC1=S
22 | inactive | inactive | – | – | O=C(O)CN1C(=O)/C(=C/c2ccc3nsnc3c2)SC1=S
23 | inactive | – | 7.4 | – | O=C1/C(=C/c2coc3c(Cl)cc(Cl)cc3c2=O)SC(=S)N1Cc1ccccc1
24 | inactive | inactive | – | – | O=C1/C(=C/C2=Cc3ccccc3OC2)SC(=S)N1Cc1ccccc1
25 | inactive | inactive | – | – | CCN1C(=O)/C(=C/c2ccc3nsnc3c2)SC1=S
26 | inactive | – | 5.5 | – | O=C1NC(=S)S/C1=C\c1csc2ccc(Cl)cc12
27 | inactive | inactive | – | – | C=CCN1C(=O)/C(=C/c2ccc3nsnc3c2)SC1=S
28 | inactive | – | > 100 | – | C=CCN1C(=O)/C(=C/c2coc3c(Cl)cc(Cl)cc3c2=O)SC1=S
29 | inactive | – | 48 | inactive | O=C(O)CCN1C(=O)/C(=C/c2csc3ccc(Cl)cc23)SC1=S
30 | inactive | – | 10 | – | O=C(O)CCN1C(=O)/C(=C/c2coc3c(Cl)cc(Cl)cc3c2=O)SC1=S
31 | inactive | inactive | – | – | C=CCN1C(=O)/C(=C/c2ccc(Br)cc2)SC1=S
32 | inactive | – | 50 | inactive | O=C1/C(=C/c2cc(Cl)cc(Cl)c2)SC(=S)N1Cc1ccccc1
33 | inactive | inactive | – | – | C=CCN1C(=O)/C(=C/c2csc3ccc(Cl)cc23)SC1=S
34 | inactive | inactive | – | – | O=C1/C(=C/c2ccc3nsnc3c2)SC(=S)N1Cc1ccccc1
35 | inactive | inactive | – | – | CCN1C(=O)/C(=C/c2cnc3ccccc3n2)SC1=S
36 | inactive | – | 43 | inactive | O=C1NC(=S)S/C1=C\c1cnc2ccccc2n1
37 | inactive | inactive | – | – | CCN1C(=O)/C(=C/c2ccc(-c3ccccc3)cc2)SC1=S
38 | inactive | – | 23.5 | – | O=C(O)CCN1C(=O)/C(=C/C2=Cc3ccccc3OC2)SC1=S
39 | inactive | inactive | – | – | C=CCN1C(=O)/C(=C/c2ccc3nonc3c2)SC1=S
40 | inactive | inactive | – | – | O=C1/C(=C/c2cnc3ccccc3n2)SC(=S)N1Cc1ccccc1

Row | inhibition (Homo sapiens) | inhibition (Ovis aries) | IC50 [1] [µM] | inhibition (Dynamin-1 (Homo sapiens)) | SMILES
41 | inactive | – | 3.4 | – | O=C(O)CN1C(=O)/C(=C/c2coc3c(Cl)cc(Cl)cc3c2=O)SC1=S
42 | inactive | – | 53 | – | O=C1/C(=C/c2ccc3nonc3c2)SC(=S)N1Cc1ccccc1
43 | inactive | – | – | – | CN(C)CCCOc1ccc(/C=C2\SC(=S)N(CCC(=O)O)C2=O)cc1
44 | inactive | – | 3.1 | inactive | CCN1C(=O)/C(=C/c2cc(Cl)cc(Cl)c2)SC1=S
45 | inactive | inactive | – | – | O=C(O)CCN1C(=O)/C(=C/c2ccc3nonc3c2)SC1=S
46 | inactive | – | 90 | – | O=C1NC(=S)S/C1=C\C1=Cc2ccccc2OC1
47 | inactive | – | 6.4 | – | CCN1C(=O)/C(=C/c2ccc(OCCCN(C)C)cc2)SC1=S
48 | inactive | – | > 100 | – | O=C(O)CN1C(=O)/C(=C/c2ccc(Br)cc2)SC1=S
49 | inactive | inactive | – | – | O=C1/C(=C/c2csc3ccc(Cl)cc23)SC(=S)N1Cc1ccccc1
50 | inactive | inactive | – | – | O=C(O)CN1C(=O)/C(=C/c2ccc3nonc3c2)SC1=S
51 | inactive | – | 31 | inactive | C=CCN1C(=O)/C(=C/c2cc(Cl)cc(Cl)c2)SC1=S
52 | inactive | inactive | – | – | O=C1NC(=S)S/C1=C\c1ccc2nsnc2c1
53 | inactive | – | > 100 | – | O=C(O)CCN1C(=O)/C(=C/c2ccc3nsnc3c2)SC1=S
54 | inactive | inactive | – | – | O=C(O)CN1C(=O)/C(=C/C2=Cc3ccccc3OC2)SC1=S
55 | inactive | – | 5.1 | – | CCN1C(=O)/C(=C/c2coc3c(Cl)cc(Cl)cc3c2=O)SC1=S
56 | inactive | – | 4.4 | inactive | O=C(O)CCN1C(=O)/C(=C/c2cc(Cl)cc(Cl)c2)SC1=S
57 | inactive | – | 12.3 | – | O=C(O)CN1C(=O)/C(=C/c2csc3ccc(Cl)cc23)SC1=S
58 | inactive | inactive | – | – | CCN1C(=O)/C(=C/c2ccc3nonc3c2)SC1=S
59 | inactive | inactive | – | – | CCN1C(=O)/C(=C/c2ccc(Br)cc2)SC1=S

Row | SMILES | inhibition (Homo sapiens) | inhibition (Ovis aries) | IC50 [1] [µM] | inhibition (Dynamin-1 (Homo sapiens))
60 | O=C(O)CN1C(=O)/C(=C/c2ccc(-c3ccccc3)cc2)SC1=S | inactive | – | 73 | –
